Assay results taken from patent US3985779A, “M-phenoxyphenyl propionic acid derivatives and preparation thereof” (Eisai Co., Ltd., priority 1973, dated 1976).

What was measured:
[1] = system: Kaolin-induced edema; experiment: Inhibitory activity on Kaolin-induced Edema in Rats (Experiment B); format: in vivo
[2] = system: Dextran-induced edema; experiment: Inhibitory activity on dextran-induced edema in rats (Experiment C); format: in vivo
Experimental: Inhibitory activity on dextran-induced edema in rats Experiment was carried out in the manner same as those of the preceding Experiments in which dextran was employed as irritant substance.

[3] = system: Carrageenin-induced edema; experiment: Inhibitory activity on Carrageenin-induced Edema in rats (Experiment A); format: in vivo, rats (male Wistar); details: 3 hours after Carrageenin
Experimental: Inhibitory activity on Carrageenin-induced Edema in rats
Carrageenin was used as the agent for inducing edema and 5 male rats of Wistar strain having body weight of about 150 grs. after fasting for 16-17 hours were used as test animals. The inhibitory activity of the test compounds were determined with the paw edema method in accordance with Winter C. A. et al; Proc. Soc. Exp. Biol. Med. 111, 544 (1962).
The compounds were suspended in an aqueous solution of gum arabic and the same were orally administered to the rats at 1 hour before the injection of Carrageenin.
The observation was effected by measuring, after 3 hours the administration of the Carrageenin, the enlarged volumes of hind paw of the rats.

[4] = system: ARRS-induced edema; experiment: Inhibitory activity on anti-rat-rabbit serum (ARRS)-induced edema in rats (Experiment D); format: in vivo
Experimental: Inhibitory activity on anti-rat-rabbit serum (ARRS)-induced edema in rats Similar Experiments was carried out by using ARRS as irritant substance.

[5] = system: stomachs of the rats; format: in vivo; details: 50 mg/kg oral; score 0 (nothing unusual) to 10 (considerable irritability with bleeding)
Source text: Observation of gastric irritability
Gastric irritability due to oral administration of the compounds as edema inhibitory agent was studied by macroscopical observation of the dissected stomachs of the rats which had been employed for determination of the edema inhibitions mentioned in the preceding paragraphs. The degrees of the irritability observed were scored in the 0 to 10 ratings depending upon the extent of errosions and bleedings of the stomachs, wherein the rating of 0(zero) means "nothing unusual", the rating of 10 means a state of considerable gastric irritability with bleeding and the remainders mean the intermediate degree of gastric irritability.

CC(C(=O)O)c1cccc(Oc2ccccc2)c1 (stereo not shown) [Compound (2), reference compound]
Edema D. ± S.E. ([1]; after 3 hrs, oral 8 mg/kg): .418 ± .040 | % of Inhibition ([1]; after 3 hrs, oral 40 mg/kg): 49% | Edema D. ± S.E. ([1]; after 3 hrs, oral 40 mg/kg): .212 ± .023 | % of Inhibition ([1]; after 5 hrs, oral 8 mg/kg): 11% | Edema D. ± S.E. ([1]; after 5 hrs, oral 8 mg/kg): .499 ± .048 | % of Inhibition ([1]; after 5 hrs, oral 40 mg/kg): 48% | Edema D. ± S.E. ([1]; after 5 hrs, oral 40 mg/kg): .292 ± .031 | Edema D. ± S.E. ([1]; after 7 hrs, oral 8 mg/kg): .612 ± .067 | % of Inhibition ([1]; after 7 hrs, oral 40 mg/kg): 33% | Edema D. ± S.E. ([1]; after 7 hrs, oral 40 mg/kg): .406 ± .057 | % of Inhibition ([2]; after 2 hrs, oral 8 mg/kg): 5% | Edema D. ± S.E. ([2]; after 2 hrs, oral 8 mg/kg): .795 ± .031 | % of Inhibition ([2]; after 2 hrs, oral 40 mg/kg): 1% | Edema D. ± S.E. ([2]; after 2 hrs, oral 40 mg/kg): .846 ± .013 | % of Inhibition ([2]; after 3 hrs, oral 8 mg/kg): 1% | Edema D. ± S.E. ([2]; after 3 hrs, oral 8 mg/kg): .749 ± .026 | % of Inhibition ([2]; after 3 hrs, oral 40 mg/kg): -3% | Edema D. ± S.E. ([2]; after 3 hrs, oral 40 mg/kg): .773 ± .027 | % of Inhibition ([3]; oral 8.0 mg/kg): 31% | Edema density ± S.E. ([3]; oral 8.0 mg/kg): .373 ± .039 | % of Inhibition ([3]; oral 10.0 mg/kg, 10 mg/kg): 35% | Edema density ± S.E. ([3]; oral 10.0 mg/kg, 10 mg/kg): .352 ± .063 | % of Inhibition ([4]; after 2 hrs, oral 8 mg/kg): 7% | Edema D. ± S.E. ([4]; after 2 hrs, oral 8 mg/kg): .634 ± .048 | % of Inhibition ([4]; after 2 hrs, oral 40 mg/kg): 19% | Edema D. ± S.E. ([4]; after 2 hrs, oral 40 mg/kg): .553 ± .038 | % of Inhibition ([4]; after 3 hrs, oral 8 mg/kg): 16% | Edema D. ± S.E. ([4]; after 3 hrs, oral 8 mg/kg): .599 ± .040 | % of Inhibition ([4]; after 3 hrs, oral 40 mg/kg): 26% | Edema D. ± S.E. ([4]; after 3 hrs, oral 40 mg/kg): .531 ± .026 | Degree of gastric irritability [5]: 3
